We go through 1 compound from publication PMC6192554, “In vitro toxicity and efficacy of verdinexor, an exportin 1 inhibitor, on opportunistic viruses affecting immunocompromised individuals” (PLoS ONE, 2018).

The test system of series [1] is Epstein-Barr virus (EBV) Akata strain. Kind of series: EBV primary assay, DNA hybridization in induced Akata cells. It counts as cell-based. As for the experimental part: (§1) EBV Akata strain was assayed in Akata cells (John Sixbey, LSU) latently infected with EBV (and therefore oncogenic). Cells were maintained in RPMI 1640, (Mediatech) with 10% FBS (Hyclone), L-glutamine, penicillin and gentamicin.
For Primary assay, Akata cells latently infected with EBV were induced to undergo lytic infection by addition of 50μg/ml of a goat anti-human IgG [16] and a dose-range of verdinexor (0.032 to 100 μM) was added for 72hr. Denaturation buffer was added and an aliquot aspirated through an Immobilon nylon membrane (Millipore, Bedford, MA). Dried membranes were equilibrated in DIG Easy Hyb solution (Roche Diagnostics, Indianapolis, IN) at 56°C. Specific DIG-labeled probes for EBV (S1 Table). (Roche Diagnostics). Membranes with EBV DNA were hybridized overnight followed by washes in 0.2× SSC and 0.1× SSC both with 0.1% SDS. Detection of specifically bound DIG probe was performed with anti-DIG antibody (Roche Diagnostics). An image of the photographic film was captured and quantified with QuantityOne software (Bio-Rad), and the EC50 were interpolated.

The test system is the same in series [2]. Kind of series: EBV secondary assay, qPCR of viral DNA in induced Akata cells. It counts as cell-based. The method, then:
as §1
Secondary assay for EBV were performed in Akata cells that were induced to undergo a lytic infection with 50μg/ml of a goat anti-human IgG antibody by methods we reported previously. Experimental compounds were diluted in round bottom 96-well plates to yield concentrations ranging from 0.0032–100μM. Akata cells were added to the plates at a concentration of 4×10^4 cells per well and […]. Assay plates were incubated for seven days at 37°C. For all assays, the replication of the virus was assessed by the quantification of viral DNA. For primer sequences, please see S1 Table. EBV DNA was purified according to manufacturer’s instructions (Wizard SV 96 Genomic DNA Purification System). The purified DNA was then subjected to qPCR that amplified a fragment corresponding to nucleotides 96802–97234 in the EBV genome (AJ507799). Plasmid pMP218 containing a DNA sequences corresponding to nucleotides 14120–14182 (AF148805.2) was used to provide absolute quantification of viral DNA. Compound concentrations sufficient to reduce genome copy number by 50% were calculated from experimental data.
On the technique in general: Real-time PCR tracks product formation cycle by cycle.

The nature of series [3]: Cytotoxicity in Akata cells (CellTiter-Glo), concurrent with EBV assays. It counts as cell-based. Particulars: human. The method, then:
Cytotoxicity assays: Concurrent assessment of cytotoxicity was also performed for each study in the same cell line and with the same compound exposure. For KSHV, cell viability was assessed with the CellTiter-Glo Luminescent Cell Viability Assay (Promega) using manufacturer’s protocol. Luminescence was quantified on a luminometer. Standard methods were used to calculate the 50% cytotoxic level (CC50). Cytotoxicity assay was performed in a manner analogous to KSHV (see above).
(In general: Cellular ATP, detected with luciferase, serves as a proxy for viable cell number.)

Another series relates to Human adenovirus type 5. Kind of series: Adenovirus virus yield (TCID50) assay in HeLa cells. It counts as cell-based. Conditions: Human mastadenovirus C. The method, then: Human adenovirus type 5 was obtained from ATCC and cultured in HeLa cells under standard conditions.
Prior to assessing cell viability using MTS, supernatants were collected from plates and titrated to determine virus yield. Serial dilutions of supernatants were incubated on HeLa cells for 3 days. Following incubation, wells were visually scored for infection and TCID50, EC50, CC50 and SI were calculated for each sample.

Series [4] can be described thus: Cytotoxicity in HeLa cells (MTS). It counts as cell-based. Conditions: human. The method, then:
Cytotoxicity assays: Concurrent assessment of cytotoxicity was also performed for each study in the same cell line and with the same compound exposure. For AdV cytotoxicity assay, at 6d post-infection plates were stained with tetrazolium-based MTS (CellTiter96 Reagent, Promega) and the microtiter plates were read spectrophotometrically at 490/650nm (Molecular Devices).

A further series in a line: Serum protein binding. It counts as in vitro ADME. Particulars: human, humans. As for the experimental part:
(§2) Serum concentrations with Verdinexor have been previously established in in vivo models of influenza in both mice and ferrets. In mice receiving 10mg/kg and ferrets receiving 5mg/kg, max plasma concentration of verdinexor was approximately 1200 (ng/mL) however, the half life in mice was extended (6 hours) as compared to that of ferrets (2 hours). Serum protein binding of verdinexor in humans is 98.4%. […] A Phase 1, Randomized, Double-Blind, Placebo-Controlled, Sequential, Dose-Escalating Trial to Evaluate the Safety and Tolerability of Oral Verdinexor (KPT-335) in Healthy Adult Subjects was conducted in Nucleus Network, Melbourne, Victoria, Australia [ClinicalTrials.gov: NCT02431364]. No study results are currently posted for this study. Furthermore, a clinical study was submitted to the USA FDA on IND#122718. This phase 1a, Randomized, Double-Blind, Placebo-Controlled, Sequential, Dose-Escalating Trial of Single and Multi-Dose oral verdinexor (KPT-335) to Evaluate the Safety and Tolerability in Healthy Elderly Volunteers is yet to be initiated and recruit subjects.

The test system of series [5] is 104 principal receptor/ligand interactions. Kind of series: Off-target panel of in vitro protein binding assays. Conditions: 10 μM; 104 receptor/ligand interactions. The method, then:
as §2

In series [6] the target is T1, histamine H1 receptor (Homo sapiens, UniProt P35367). Kind of series: Histamine H1 receptor binding (off-target panel). Conditions: Study No. KS-1016 and PE-50946871.
T1 sequence (P35367 whole entry, species assumed): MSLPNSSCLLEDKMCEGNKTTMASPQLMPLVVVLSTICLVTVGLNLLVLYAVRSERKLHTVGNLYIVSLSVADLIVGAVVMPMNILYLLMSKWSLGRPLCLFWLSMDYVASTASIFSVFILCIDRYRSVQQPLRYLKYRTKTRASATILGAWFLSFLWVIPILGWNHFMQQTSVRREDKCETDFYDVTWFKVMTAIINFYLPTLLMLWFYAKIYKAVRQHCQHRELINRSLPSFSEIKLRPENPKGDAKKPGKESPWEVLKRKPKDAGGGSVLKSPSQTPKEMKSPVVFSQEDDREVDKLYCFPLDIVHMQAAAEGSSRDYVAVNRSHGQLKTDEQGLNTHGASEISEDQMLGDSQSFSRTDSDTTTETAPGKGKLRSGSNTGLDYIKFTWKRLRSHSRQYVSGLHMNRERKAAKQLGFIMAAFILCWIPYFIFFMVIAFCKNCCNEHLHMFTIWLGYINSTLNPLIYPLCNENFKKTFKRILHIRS
Series [7] addresses T1, histamine H1 receptor. Kind of series: Histamine H1 receptor functional activity assay, agonist. It counts as biochemical. Conditions: Study No. KS-1017, read-out: IC50 (50% inhibitory concentration).
The conditions of series [8]: mouse, in vivo, 10 mg/kg; cited from earlier work.
[9] abbreviates: human gammaherpesvirus 4, Akata.

By EC50 is commonly meant the midpoint of the concentration-response curve. Low values mean an effect from little substance, high ones a need for much substance. A word on the CC50: it is the concentration at which the toxic effect on the cells reaches its halfway point. A lower CC50 goes with greater toxicity to the cells. What is called fraction unbound is the share of the substance not bound to proteins or other matrix. Read a low fraction unbound as extensive binding. What is called inhibition is the percentage by which the read-out fell short of the control. A lower inhibition goes with a response near the control.

The structures appear in SMILES notation. Bounds are passed on as bounds.

As for `O=C(C=Cn1cnc(-c2cc(C(F)(F)F)cc(C(F)(F)F)c2)n1)NNc1ccccn1` (stereo in doubt) [verdinexor, (E)-3-[3-[3,5-bis(trifluoromethyl)phenyl]-1,2,4-triazol-1-yl]-N'-pyridin-2-ylprop-2-enehydrazide], the “SI (Selectivity Index, CC50/EC50)” value in [1] (EBV, primary screen, DNA hybridization) was below 1; in series [2] (EBV, secondary screen, qPCR) it was 7. For the same compound, the 50% effective concentration (EC50) in series [1] (setting [9]) is above 480 nM; in [2] (setting [9]) it was 50 nM; with Human adenovirus type 5 (Ad5, primary screen) it was above 180 nM; in the series on Human adenovirus type 5 (Ad5, secondary screen), below 30 nM. Besides, the CC50 was below 680 nM in [3] (EBV assays), 680 nM in series [3] (EBV primary screen) and 340 nM in series [3] (EBV secondary screen). The half-maximal cytotoxic concentration (CC50) at 6 d was 180 nM in [4] (Ad5 primary screen) and 100 nM in [4] (Ad5 secondary screen). In “Serum protein binding”, this compound gave an unbound share (fraction unbound) of 0.016. In series [5], the “effect on off-target panel” value is reported as “none of the enzymes, receptors, transporters, kinases, or cysteine proteases were significantly affected”. Besides, the inhibition at 10 µM on histamine H1 receptor [6] amounted to 33%. Besides, the IC50 at histamine H1 receptor [7] was above 10000 nM. Also, in series [8], the half life was 6 h.
